What was measured:
Assay type in all cases: cell-based
Aspergillus terreus AT49 = assay: MIC, YAG medium; settings: Aspergillus terreus, 24 h at 35° C, MIC banded into grades, read-out: MIC grade, A. terreus 49
Method in brief: (§1)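 Broth microdilution in YAG medium tests compound over 50-0.05 mg/L against spores at 1−2×10^4 cfu/mL. After 24 h incubation at 35° C, optical density at 485 nm gives growth, and the MIC is the lowest concentration reducing it by more than 70% relative to untreated control.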

Aspergillus flavus = assay: MIC, YAG medium; settings: Aspergillus flavus, 24 h, 24 h at 35° C, MIC banded into grades, read-out: MIC grade, A. flavus
Method in brief: as §1

Aspergillus niger = assay: MIC, YAG medium; settings: Aspergillus niger, 24 h at 35° C, MIC banded into grades, read-out: MIC grade, A. niger
Method in brief: as §1

[1] = system: Aspergillus fumigatus AF293; assay: MIC, YAG medium; settings: Aspergillus fumigatus, 24 h at 35° C, MIC banded into grades, read-out: MIC grade, A. fumigatus
Method in brief: as §1

Aspergillus terreus AT4 = assay: MIC, YAG medium; settings: Aspergillus terreus, 24 h at 35° C, MIC banded into grades, read-out: MIC grade, A. terreus
Method in brief: as §1

[2] = system: Aspergillus fumigatus AF210; assay: MIC, YAG medium; settings: Aspergillus fumigatus, 24 h at 35° C, MIC banded into grades, read-out: MIC grade, A. fumigatus 210
Method in brief: as §1

[3] = system: Aspergillus fumigatus AF210; assay: Checkerboard titration, fractional inhibitory concentration (FIC), RPMI media; settings: compound A in combination with caspofungin as compound B
Protocol: In the checkerboard titration doubling dilutions of compound A (e.g. an antifungal pyrrole compound as defined earlier) are prepared in every row across a microtitre plate and doubling dilutions of compound B (e.g. a second antifungal agent as defined earlier) are prepared in every column down a microtitre plate. The activity of the two compounds in combination can be compared with the activity of each compound alone. In such experiments a narrow range of dilutions can be tested for each compound around the minimum inhibitory concentration (MIC).
As an example, a stock solution of compound A (e.g. 5 mg/ml) can be prepared in a suitable solvent such as DMSO. A stock solution of compound B (e.g. caspofungin) is also prepared (e.g. 2 mg/ml). The stock solution of compound A is diluted (e.g. at a concentration of 1:2000 in water) to 2.5 μg/ml. […]
To determine the combined effect of the compounds the Fractional inhibitory concentration FIC is determined, where FIC is defined as: FIC=FICA+FICB=CA^comb/MICA^alone+CB^comb/MICB^alone where MICA^alone and MICB^alone are the MICs of compounds A and B when acting alone and CA^comb and CB^comb are concentrations of compounds A and B at the isoeffective combinations, respectively. […]

Cc1cc(C)nc(N2CCN(c3ccc(NC(=O)C(=O)c4c(-c5ccccc5)cc(C)n4C)cc3)CC2)c1 [Example 1, 2-(1,5-Dimethyl-3-phenyl-1H-pyrrol-2-yl)-N-{4-[4-(4,6-dimethyl-pyridin-2-yl)-piperazin-1-yl]-phenyl}-2-oxo-acetamide]
0.67: FIC (fractional inhibitory concentration) [3]
< 1 µg/mL: MIC (Aspergillus terreus AT49) | MIC (Aspergillus flavus) | MIC (Aspergillus niger) | MIC [1] | MIC (Aspergillus terreus AT4) | MIC [2]

— patent publication US8993574B2, “Pyrrole antifungal agents” (F2G Ltd, priority 2008, dated 2015)
